Where “and” joins values, the source holds several entries; their conditions need not be identical. Equal entries are not always repeated.
System: MDA-MB-468 spheroids with HUVEC/MSC, viability
Test: Anticancer human tumor MDA-MB-468 cell line growth inhibition [PI3K];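 further: spheroids exposed to agents for seven days before readout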;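 on viability, T/C: 100% = DMSO vehicle control viability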
Conditions: for viability, T/C: stronger effect = lower value
Description: Combinatorial screen of targeted agents with the PI3K inhibitors inavolisib, alpelisib, duvelisib, and copanlisib in multi-cell type tumor spheroids
A high-throughput screen of multi-cell type tumor spheroids was designed to identify active combinations of targeted small molecules and PI3K pathway inhibitors. Complex spheroids include a stromal component modeled by human endothelial cells (HUVEC) and fibroblasts modeled by human mesenchymal stem cells (MSCs). The concentration ranges selected for each drug and investigational agent were based upon clinically achievable concentrations if the clinical Cmax of the agent was known.
Compounds. The drugs and investigational agents: inavolisib (NSC800729), alpelisib (NSC765974), duvelisib (NSC772469), copanlisib (NSC816437), ipatasertib (NSC767898), afuresertib (NSC778305), talazoparib (NSC767125), sapanisertib (NSC764658), selumetinib (NSC741078), tovorafenib (DAY101, NSC766906), vemurafenib (NSC761431), ravoxertinib (NSC781343), sotorasib (NSC818433), MRTX1133 (NSC 836407), abemaciclib (NSC 768073), palbociclib (NSC758247), venetoclax (NSC 766270), SY5609 (NSC837396), enzalutamide (NSC755605), and darolutamide (NSC825331), were obtained from the National Cancer Institute (NCI) Developmental Therapeutics Program Chemical Repository. The FDA-approved anticancer drug set is available from the NCI Developmental Therapeutics Program. […] The stock solutions were prepared in dimethyl sulfoxide (DMSO, Sigma-Aldrich, St. Louis, MO, cat. D2650) at 800-fold the tested concentration and stored at -70 degrees C prior to their use. All drugs and investigational agents were tested over a range starting from a high concentration at or near the clinical Cmax and decreasing in half-log increments. If the clinical Cmax for an agent had not been determined, the highest concentration tested was 10 microM.
Cell Culture. All cells were maintained in an incubator at 37 degrees C and 5% CO2 with 95% humidity. The PDC lines were cultured according to standard operating procedures established by the NCI PDMR (https://pdmr.cancer.gov/sops/default.htm). All PDCs were thawed and cultured in Matrigel-coated flasks prepared with a working solution of 1X Ham's F-12 nutrient mix, without supplementation (Invitrogen, Waltham, MA, cat. 11765054), 100 U/mL penicillin-streptomycin (Invitrogen, cat. 15140122), and 2.5% Matrigel (Corning Inc., Corning, NY, cat. 354248) for the first three passages. The 354836-022-R-J1-PDC, 475296-252-R-J1-PDC, and 997726-040-R-J2-PDC lines were cultured in 6A media, which includes advanced DMEM/F-12 (Thermo Fisher Scientific, cat. 12634028), 10 mM HEPES (Thermo Fisher Scientific, cat. 15630080), 1X GlutaMAX supplement (Thermo Fisher Scientific, cat. 35050061), 0.1 mg/mL primocin (InvivoGen, San Diego, CA, cat. ant-pm-2), 10% defined fetal bovine serum, heat inactivated (HyClone Laboratories Inc., Logan, UT, cat. SH30070.03HI), 50% L-WRN conditioned media (ATCC, cat. CRL-3276), 1.25 mM N-Acetyl-L-cysteine (Sigma-Aldrich, cat. A9165), 10 mM nicotinamide (Sigma-Aldrich, cat. N0636), 1X B-27 supplement (Thermo Fisher Scientific, cat. 17504044), 1X N-2 supplement (Thermo Fisher Scientific, cat. 17502048), and 10 microM Y-27632 dihydrochloride (Tocris Bioscience, Bristol, United Kingdom, cat. 1254). The 624824-186-R-J2-PDC line was cultured in 6C/Colon 1B media, which includes all 6A media components plus 50 ng/mL human EGF recombinant protein (Thermo Fisher Scientific, cat. PHG0311). […]

[1] = compound alone, run of 05/09/2023

Row | Compound | viability, T/C (compound 0.0316 µM) | viability, T/C (compound 0.1 µM) | viability, T/C (compound 0.316 µM) | viability, T/C (compound 1 µM) | viability, T/C (compound 10 µM) | IC50 (curve of compound) | viability, T/C (compound 3.16 µM) | viability, T/C (compound 0.00316 µM) | further results
1 | C#Cc1c(F)ccc2cc(O)cc(-c3ncc4c(N5CC6CCC(C5)N6)nc(OCC56CCCN5CC(F)C6)nc4c3F)c12 (stereo not drawn) | 81.9% [middle of 4 runs] | 92.6% [middle of 4 runs] | 92.2% [middle of 4 runs] | 100% [middle of 4 runs] | 55.1% [middle of 4 runs] | > 10 µM and 9.96 µM | – | – | –
2 | C=CC(=O)N1CCN(c2nc(=O)n(-c3c(C)ccnc3C(C)C)c3nc(-c4c(O)cccc4F)c(F)cc23)C(C)C1 (stereo not drawn) | 94.1% [middle of 4 runs] | 96.2% [middle of 4 runs] | – | 107% (2×) and 89.3% and 105% | 78.6% [middle of 4 runs] | > 10 µM | 101% [middle of 4 runs] | – | –
3 | CC(=O)c1c(C)c2cnc(Nc3ccc(N4CCNCC4)cn3)nc2n(C2CCCC2)c1=O | 99.3% [middle of 4 runs] | 97.2% [middle of 4 runs] | – | – | – | > 0.1 µM | – | 110% [middle of 4 runs] | viability, T/C (compound 0.000316 µM): 106% [middle of 4 runs]; viability, T/C (compound 0.001 µM): 93.5% [middle of 4 runs]; viability, T/C (compound 0.01 µM): 91% [middle of 4 runs]
4 | CC(C)NCC(C(=O)N1CCN(c2ncnc3c2C(C)CC3O)CC1)c1ccc(Cl)cc1 (stereo not drawn) | 89.5% [middle of 4 runs] | 81.3% [middle of 4 runs] | – | 54.2% [middle of 4 runs] | 26.4% and 22.6% (2×) and 27% | 1.29 µM [middle of 4 runs] | 32.4% [middle of 4 runs] | – | –
5 | CC(C)n1nc(-c2ccc3oc(N)nc3c2)c2c(N)ncnc21 | 64.6% [middle of 4 runs] | 19.3% [middle of 4 runs] | – | – | – | 44.4 nM [middle of 4 runs] | – | 93% [middle of 4 runs] | viability, T/C (compound 0.000316 µM): 101% [middle of 4 runs]; viability, T/C (compound 0.01 µM): 81.4% [middle of 4 runs]
6 | CC(Cn1ccc(-c2ccc(C#N)c(Cl)c2)n1)NC(=O)c1cc(C(C)O)[nH]n1 (stereo not drawn) | 98% [middle of 4 runs] | 87.6% [middle of 4 runs] | 87.2% and 90.1% and 102% (2×) | 96.8% [middle of 4 runs] | – | > 10 µM | 83.8% [middle of 4 runs] | – | –
7 | CC(Nc1ccc2c(c1)OCCn1cc(N3C(=O)OCC3C(F)F)nc1-2)C(N)=O (stereo not drawn) | 84.2% [middle of 8 runs] | 91.4% [middle of 8 runs] | 93.4% [middle of 8 runs] | 90.8% [middle of 8 runs] | – | – | – | 96.8% [middle of 8 runs] | viability, T/C (compound 0.01 µM): 88.1% [middle of 8 runs]; IC50 (compound alone, run of 05/08/2023): > 1 µM
8 | CC(Nc1ncnc2nc[nH]c12)c1cc2cccc(Cl)c2c(=O)n1-c1ccccc1 (stereo not drawn) | 94% [middle of 8 runs] | 93.1% [middle of 8 runs] | 81% [middle of 8 runs] | 71.2% [middle of 8 runs] | 40.7% [middle of 8 runs] | – | 55.5% [middle of 8 runs] | – | IC50 [1]: 4.95 µM [middle of 8 runs]
9 | CC1(C)CCC(CN2CCN(c3ccc(C(=O)NS(=O)(=O)c4ccc(NCC5CCOCC5)c([N+](=O)[O-])c4)c(Oc4cnc5[nH]ccc5c4)c3)CC2)=C(c2ccc(Cl)cc2)C1 | 92.6% [middle of 4 runs] | 88% [middle of 4 runs] | 97.9% [middle of 4 runs] | 99.4% [middle of 4 runs] | – | – | 72.8% [middle of 4 runs] | – | –
10 | CC1(C)CCC(Nc2ncc(C(F)(F)F)c(-c3c[nH]c4c(P(C)(C)=O)c(C#N)ccc34)n2)CN1 (stereo not drawn) | 12% [middle of 4 runs] | 10.6% [middle of 4 runs] | 9.01% [middle of 4 runs] | 7.86% [middle of 4 runs] | 1.71% [middle of 4 runs] | < 0.0316 µM | 8.98% [middle of 4 runs] | – | –
11 | CCN1CCN(Cc2ccc(Nc3ncc(F)c(-c4cc(F)c5nc(C)n(C(C)C)c5c4)n3)nc2)CC1 | 99.3% [middle of 4 runs] | – | 108% [middle of 4 runs] | 66.1% [middle of 4 runs] | – | > 1 µM | – | 98.5% and 101% (2×) and 106% | –
12 | CNC(=O)c1ccc(N2C(=S)N(c3ccc(C#N)c(C(F)(F)F)c3)C(=O)C2(C)C)cc1F | 98% [middle of 4 runs] | 97% [middle of 4 runs] | 97% [middle of 4 runs] | 102% [middle of 4 runs] | 72.8% [middle of 4 runs] | > 10 µM | 93.3% [middle of 4 runs] | – | –
13 | COc1c(OCCCN2CCOCC2)ccc2c3n(c(=NC(=O)c4cnc(N)nc4)nc12)CCN3 | 76.7% [middle of 8 runs] | 57.7% [middle of 8 runs] | 23.9% [middle of 8 runs] | 3.27% [middle of 8 runs] | – | – | – | 99.8% [middle of 8 runs] | viability, T/C (compound 0.01 µM): 90.4% [middle of 8 runs]; IC50 [1]: 122 nM [middle of 7 runs]
14 | C[C@@H](NC(=O)c1ncnc(N)c1Cl)c1ncc(C(=O)Nc2cc(C(F)(F)F)c(Cl)cn2)s1 | 95.6% [middle of 4 runs] | 102% [middle of 4 runs] | – | 99.1% [middle of 4 runs] | – | > 10 µM | – | – | –
15 | Cc1nc(NC(=O)N2CCCC2C(N)=O)sc1-c1ccnc(C(C)(C)C(F)(F)F)c1 (stereo not drawn) | 89% [middle of 8 runs] | 83.7% [middle of 8 runs] | 81.1% [middle of 8 runs] | 77.9% [middle of 8 runs] | 44.1% [middle of 8 runs] | – | 70.2% [middle of 7 runs] | – | –
16 | Cn1cnc2c(F)c(Nc3ccc(Br)cc3Cl)c(C(=O)NOCCO)cc21 | – | – | – | – | – | > 3 µM | – | – | viability, T/C (compound 0.00949 µM): 82.8% [middle of 4 runs]; viability, T/C (compound 0.03 µM): 83.3% [middle of 4 runs]; viability, T/C (compound 0.0949 µM): 86.8% [middle of 4 runs]; viability, T/C (compound 0.3 µM): 87.3% [middle of 4 runs]; viability, T/C (compound 0.949 µM): 88.8% [middle of 4 runs]; viability, T/C (compound 3 µM): 64.7% [middle of 4 runs]
17 | Cn1ncc(Cl)c1-c1cc(C(=O)NC(CN)Cc2cccc(F)c2)sc1Cl (stereo not drawn) | 86.1% [middle of 4 runs] | 69.6% and 66.7% (2×) and 83% | 53.9% [middle of 4 runs] | 34.2% [middle of 4 runs] | 15.4% [middle of 4 runs] | 462 nM [middle of 4 runs] | 29.6% [middle of 4 runs] | – | –
18 | Cn1nccc1Nc1nccc(-c2ccn(C(CO)c3ccc(Cl)c(F)c3)c(=O)c2)n1 (stereo not drawn) | 92.3% [middle of 4 runs] | 92.9% [middle of 4 runs] | 101% [middle of 4 runs] | – | 81.9% [middle of 4 runs] | > 10 µM | – | – | –
19 | Cn1ncnc1[C@H]1c2n[nH]c(=O)c3cc(F)cc(c23)N[C@@H]1c1ccc(F)cc1 | 87.3% [middle of 4 runs] | 56.5% [middle of 4 runs] | – | – | – | > 0.1 µM | – | 85.1% [middle of 4 runs] | viability, T/C (compound 0.000316 µM): 95.9% [middle of 4 runs]; viability, T/C (compound 0.001 µM): 93.9% [middle of 4 runs]; viability, T/C (compound 0.01 µM): 82.2% [middle of 4 runs]

From PubChem BioAssay AID1963960 (Molecular Pharmacology Branch, DTP, NCI, 2024)
